Test results from PubChem BioAssay AID248 (DTP/NCI, 2004).
Where “and” joins values, the source holds several entries; their conditions need not be identical. Equal entries are not always repeated. Inconclusive results and toxic doses are left out.

Test system: L1210 leukemia ip in BDF1 mice, survival T/C
Assay: NCI In Vivo Anticancer Drug Screen. Data for tumor model L1210 Leukemia (intraperitoneal) in B6D2F1 (BDF1) mice
Details: endpoint: mean survival time, higher = longer survival
How it was run: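 Tumor cells were implanted, animals were treated, and survival was followed. The result divides the treated measurement by the vehicle-control measurement.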

[1] = dose: 100.0 mg/kg/injection, schedule: Q01DX009 (ip), vehicle: Klucel (hydroxypropylcellulose) (HPC)
[2] = dose: 100.0 mg/kg/injection, schedule: Q04DX003 (ip), vehicle: Klucel (hydroxypropylcellulose) (HPC)
[3] = dose: 200.0 mg/kg/injection, schedule: Q01DX009 (ip), vehicle: Klucel (hydroxypropylcellulose) (HPC)
[4] = dose: 200.0 mg/kg/injection, schedule: Q04DX003 (ip), vehicle: Klucel (hydroxypropylcellulose) (HPC)
[5] = dose: 100.0 mg/kg/injection, schedule: Q01DX001 (ip), vehicle: carboxymethylcellulose (CMC)
[6] = dose: 200.0 mg/kg/injection, schedule: Q01DX001 (ip), vehicle: carboxymethylcellulose (CMC)
[7] = dose: 400.0 mg/kg/injection, schedule: Q01DX001 (ip), vehicle: carboxymethylcellulose (CMC)
[8] = dose: 50.0 mg/kg/injection, schedule: Q04DX002 (ip), vehicle: Klucel (hydroxypropylcellulose) (HPC)
[9] = dose: 100.0 mg/kg/injection, schedule: Q04DX002 (ip), vehicle: Klucel (hydroxypropylcellulose) (HPC)
[10] = dose: 200.0 mg/kg/injection, schedule: Q04DX002 (ip), vehicle: Klucel (hydroxypropylcellulose) (HPC)
[11] = dose: 100.0 mg/kg/injection, schedule: Q01DX001 (ip), vehicle: saline
[12] = dose: 200.0 mg/kg/injection, schedule: Q01DX001 (ip), vehicle: saline
[13] = dose: 400.0 mg/kg/injection, schedule: Q01DX001 (ip), vehicle: saline
[14] = dose: 400.0 mg/kg/injection, schedule: Q04DX003 (ip), vehicle: Klucel (hydroxypropylcellulose) (HPC)
[15] = dose: 400.0 mg/kg/injection, schedule: Q01DX009 (ip), vehicle: Klucel (hydroxypropylcellulose) (HPC)
[16] = dose: 50.0 mg/kg/injection, schedule: Q01DX009 (ip), vehicle: saline
[17] = dose: 50.0 mg/kg/injection, schedule: Q04DX003 (ip), vehicle: saline
[18] = dose: 100.0 mg/kg/injection, schedule: Q04DX003 (ip), vehicle: saline
[19] = dose: 50.0 mg/kg/injection, schedule: Q01DX009 (ip), vehicle: Klucel (hydroxypropylcellulose) (HPC)
[20] = dose: 400.0 mg/kg/injection, schedule: Q04DX002 (ip), vehicle: Klucel (hydroxypropylcellulose) (HPC)

## Nc1ccccc1CC(C(=O)O)c1ccc2c(c1)OCO2 (stereo unspecified)
dose: 75.0 mg/kg/injection, schedule: Q01DX001 (ip), vehicle: saline
  T/C: 105 % of control
dose: 75.0 mg/kg/injection, schedule: Q01DX009 (ip), vehicle: acetone
  T/C: 108 % of control
dose: 150.0 mg/kg/injection, schedule: Q01DX001 (ip), vehicle: saline
  T/C: 94 % of control
dose: 150.0 mg/kg/injection, schedule: Q01DX009 (ip), vehicle: acetone
  T/C: 103 % of control
dose: 300.0 mg/kg/injection, schedule: Q01DX001 (ip), vehicle: saline
  T/C: 89 % of control
dose: 300.0 mg/kg/injection, schedule: Q01DX009 (ip), vehicle: acetone
  T/C: 103 % of control

## OC(CN1CCOCC1)c1ccccc1 (stereo unspecified)
[1]
  T/C: 94 % of control
[2]
  T/C: 98 % of control
[3]
  T/C: 95 % of control
[4]
  T/C: 102 % of control

## CCCCCCc1cc(N=Nc2ccc(S(=O)(=O)Nc3nccs3)cc2)c(O)cc1O
[5]
  T/C: 95 % of control
[6]
  T/C: 98 % of control
[7]
  T/C: 95 % of control

## Cn1c(CCN=C(N)CSS(=O)(=O)O)nc2ccccc21
[8]
  T/C: 91 % of control
[9]
  T/C: 105 % of control
[10]
  T/C: 105 % of control and 112 % of control

## CC(=O)C1Cc2ccccc2C1=O (stereo unspecified)
dose: 50.0 mg/kg/injection, schedule: Q01DX001 (ip), vehicle: saline
  T/C: 100 % of control
[11]
  T/C: 97 % of control
[12]
  T/C: 106 % of control
[13]
  T/C: 108 % of control

## O=C1c2ccccc2C(=O)N1CC1CO1 (stereo unspecified)
dose: 25.0 mg/kg/injection, schedule: Q04DX002 (ip), vehicle: Klucel (hydroxypropylcellulose) (HPC)
  T/C: 90 % of control
[8]
  T/C: 93 % of control
[9]
  T/C: 93 % of control

## O=C(O)CCCCCCCCCCCO
[2]
  T/C: 100 % of control
[4]
  T/C: 97 % of control
[14]
  T/C: 91 % of control

## Cc1ccc(C)c(C2NC(=O)c3ccccc3N2)c1 (stereo unspecified)
[1]
  T/C: 102 % of control
[2]
  T/C: 106 % of control
[3]
  T/C: 106 % of control
[4]
  T/C: 90 % of control
[15]
  T/C: 103 % of control
[14]
  T/C: 93 % of control

## O=NN(CCF)C(=O)Nc1ccccc1
dose: 18.0 mg/kg/injection, schedule: Q01DX001 (ip), vehicle: other
  T/C: 160 % of control

## CC(=O)Nc1ccc(NC(=O)Nc2ccccc2C(F)(F)F)cc1
[5]
  T/C: 94 % of control and 90 % of control
dose: 100.0 mg/kg/injection, schedule: Q01DX009 (ip), vehicle: carboxymethylcellulose (CMC)
  T/C: 93 % of control and 97 % of control
dose: 100.0 mg/kg/injection, schedule: Q04DX002 (ip), vehicle: carboxymethylcellulose (CMC)
  T/C: 95 % of control and 102 % of control
dose: 100.0 mg/kg/injection, schedule: Q04DX003 (ip), vehicle: carboxymethylcellulose (CMC)
  T/C: 100 % of control and 117 % of control
[6]
  T/C: 94 % of control and 90 % of control
dose: 200.0 mg/kg/injection, schedule: Q01DX009 (ip), vehicle: carboxymethylcellulose (CMC)
  T/C: 94 % of control and 96 % of control
dose: 200.0 mg/kg/injection, schedule: Q04DX002 (ip), vehicle: carboxymethylcellulose (CMC)
  T/C: 96 % of control and 92 % of control
dose: 200.0 mg/kg/injection, schedule: Q04DX003 (ip), vehicle: carboxymethylcellulose (CMC)
  T/C: 95 % of control and 99 % of control
[7]
  T/C: 97 % of control
dose: 400.0 mg/kg/injection, schedule: Q01DX009 (ip), vehicle: carboxymethylcellulose (CMC)
  T/C: 98 % of control and 91 % of control
dose: 400.0 mg/kg/injection, schedule: Q04DX002 (ip), vehicle: carboxymethylcellulose (CMC)
  T/C: 86 % of control
dose: 400.0 mg/kg/injection, schedule: Q04DX003 (ip), vehicle: carboxymethylcellulose (CMC)
  T/C: 91 % of control

## OCC1OC(n2ccc3c2ncn2ccnc32)C(O)C1O (stereo unspecified)
dose: 25.0 mg/kg/injection, schedule: Q01DX005 (ip), vehicle: saline
  T/C: 91 % of control
dose: 50.0 mg/kg/injection, schedule: Q01DX005 (ip), vehicle: saline
  T/C: 105 % of control
[16]
  T/C: 102 % of control
dose: 100.0 mg/kg/injection, schedule: Q01DX005 (ip), vehicle: saline
  T/C: 93 % of control
dose: 100.0 mg/kg/injection, schedule: Q01DX009 (ip), vehicle: saline
  T/C: 103 % of control

## CCCCCCCCCCCCCCSSCCCCCCCCCCCCCC
[11]
  T/C: 98 % of control
[12]
  T/C: 92 % of control
[13]
  T/C: 96 % of control

## Nc1nc(Nc2ccc(C3=NCCN3)cc2)nc(Nc2ccc(C3=NCCN3)cc2)n1
dose: 1.2 mg/kg/injection, schedule: Q01DX Z (ip), vehicle: methylcellulose (MC)
  T/C: 112 % of control
dose: 1.9 mg/kg/injection, schedule: Q01DX Z (ip), vehicle: methylcellulose (MC)
  T/C: 123 % of control
dose: 3.75 mg/kg/injection, schedule: Q01DX Z (ip), vehicle: methylcellulose (MC)
  T/C: 117 % of control
dose: 15.0 mg/kg/injection, schedule: Q01DX Z (ip), vehicle: methylcellulose (MC)
  T/C: 120 % of control
dose: 16.5 mg/kg/injection, schedule: Q01DX009 (ip), vehicle: saline
  T/C: 108 % of control
dose: 25.0 mg/kg/injection, schedule: Q01DX009 (ip), vehicle: saline
  T/C: 120 % of control and 122 % of control
dose: 25.0 mg/kg/injection, schedule: Q04DX003 (ip), vehicle: saline
  T/C: 112 % of control
dose: 37.5 mg/kg/injection, schedule: Q01DX009 (ip), vehicle: saline
  T/C: 114 % of control and 115 % of control
[16]
  T/C: 123 % of control
[17]
  T/C: 109 % of control
dose: 60.0 mg/kg/injection, schedule: Q01DX Z (oral), vehicle: carboxymethylcellulose (CMC)
  T/C: 100 % of control
[11]
  T/C: 117 % of control
[18]
  T/C: 91 % of control
dose: 120.0 mg/kg/injection, schedule: Q01DX Z (oral), vehicle: carboxymethylcellulose (CMC)
  T/C: 95 % of control

## COc1c(Cl)cc([N+](=O)[O-])c(OC)c1[N+](=O)[O-]
dose: 50.0 mg/kg/injection, schedule: Q01DX009 (ip), vehicle: acetone
  T/C: 90 % of control
[17]
  T/C: 98 % of control
dose: 100.0 mg/kg/injection, schedule: Q01DX001 (ip), vehicle: acetone
  T/C: 94 % of control
dose: 100.0 mg/kg/injection, schedule: Q01DX009 (ip), vehicle: acetone
  T/C: 90 % of control
[18]
  T/C: 93 % of control
dose: 200.0 mg/kg/injection, schedule: Q01DX001 (ip), vehicle: acetone
  T/C: 98 % of control

## CCOC(=O)C(C(=O)OCC)C1CCS(=O)(=O)C1 (stereo unspecified)
dose: 100.0 mg/kg/injection, schedule: Q01DX009 (ip), vehicle: saline with Tween-80
  T/C: 103 % of control
dose: 200.0 mg/kg/injection, schedule: Q01DX009 (ip), vehicle: saline with Tween-80
  T/C: 96 % of control
dose: 400.0 mg/kg/injection, schedule: Q01DX009 (ip), vehicle: saline with Tween-80
  T/C: 92 % of control

## CC(O)/C(=N/Nc1ccc([N+](=O)[O-])cc1[N+](=O)[O-])C(=O)O (stereo unspecified)
[19]
  T/C: 106 % of control
[1]
  T/C: 96 % of control
[2]
  T/C: 91 % of control
[3]
  T/C: 96 % of control
[4]
  T/C: 88 % of control

## CC(C)(C)C(=O)CN1C(=O)c2ccccc2C1=O
dose: 100.0 mg/kg/injection, schedule: Q01DX001 (ip), vehicle: Klucel (hydroxypropylcellulose) (HPC)
  T/C: 108 % of control
[1]
  T/C: 96 % of control and 97 % of control
[9]
  T/C: 101 % of control and 103 % of control
[2]
  T/C: 101 % of control
dose: 200.0 mg/kg/injection, schedule: Q01DX001 (ip), vehicle: Klucel (hydroxypropylcellulose) (HPC)
  T/C: 112 % of control
[3]
  T/C: 96 % of control and 104 % of control
[10]
  T/C: 98 % of control and 103 % of control
[4]
  T/C: 95 % of control
dose: 400.0 mg/kg/injection, schedule: Q01DX001 (ip), vehicle: Klucel (hydroxypropylcellulose) (HPC)
  T/C: 118 % of control
[15]
  T/C: 97 % of control and 108 % of control
[20]
  T/C: 103 % of control and 109 % of control
[14]
  T/C: 103 % of control

## Cc1cccc(Cl)c1NC(=O)Cn1cccc1
dose: 25.0 mg/kg/injection, schedule: Q01DX009 (ip), vehicle: Klucel (hydroxypropylcellulose) (HPC)
  T/C: 95 % of control
[19]
  T/C: 95 % of control
dose: 75.0 mg/kg/injection, schedule: Q01DX009 (ip), vehicle: Klucel (hydroxypropylcellulose) (HPC)
  T/C: 94 % of control
[2]
  T/C: 100 % of control
[4]
  T/C: 93 % of control

## CSc1nc2ccc([N+](=O)[O-])cc2s1
[9]
  T/C: 93 % of control
[10]
  T/C: 97 % of control
[20]
  T/C: 101 % of control
